Earlier results in patent US20240415910A1, “Toxicity-Removed and Medicinal Effect-Retained Fuzi Decoction Granule and Preparation Method Thereof” (Zhejiang Chinese Medical University, priority 2023, published 2024).

Legend:
[1] = water and ethanol
[2] = oral administration

CCN1C[C@]2(COC)[C@H](O)C[C@H](OC)[C@@]34[C@@H]5C[C@@]6(O)[C@H](OC(=O)c7ccccc7)[C@@H]5[C@@](OC(C)=O)([C@@H]([C@H](OC)[C@H]23)[C@@H]14)[C@@H](O)[C@@H]6OC [Aconitine]
solubility [1]: soluble in both water and ethanol | oral amount that can cause poisoning reactions [2]: 0.2 mg
